Source: patent US6458935B1, “Radiolabeled farnesyl-protein transferase inhibitors” (Merck & Co., Inc., priority 1999, dated 2002)

System: FPTase
Assay: PET Imaging in Dogs: blockade of [11C] radiotracer binding
Type: in vivo
Details: dose of 10 mpk infused over 5 minutes; female beagle dogs; radiotracer [11C] compound of Example 6
Description: Female beagle dogs weighing 7.7-14.6 kg (11.0±2.3 kg) are fasted for at least 12 hours allowing water intake ad libitum, and are premedicated with 0.3-0.4 mL Acepromazine injected i.m. on the day of the experiment. A 20 G two inch venous catheter is placed into the right front leg ulnar vein through which anesthesia is introduced by sodium pentobarbital 25-30 mg/kg in 3-4 ml and maintained with additional pentobarbital at an average dose of 3 mg/kg/hr. Another catheter is inserted into the contralateral ulnar vein for radiotracer administration.
Oxygen saturation of circulating blood is measured with a pulse oximeter (Nellcor Inc., Hayward, Calif.) placed on the tongue of the animal. Circulatory volume is maintained by intravenous infusion of isotonic saline. A 22 G cannula is inserted into the anterior tibial or distal femoral artery for continuous pressure monitoring (Spacelabs™, model 90603A). EKG, heart rate, and core temperature are monitored continuously. In particular, EKG is observed for ST segment changes and arrhythmias. […]
For uninhibited distribution of radiotracer, regions of interest (ROIs) are drawn on the reconstructed image includes the kidney cortex and a region of liver which is removed from the gallbladder images. […] Data are expressed as radioactivity per unit time per unit volume (μCi/cc/mCi injected dose). […]

(S)-1-(3-Fluoroethoxy-5-bromophenyl)-4-[1-(4-cyanobenzyl) -5-imidazoylmethyl]-5-[(methanesulfonyl)ethyl]-2-piperazinone [Example 2]
block of PET radiotracer binding (maximum enzyme-specific signal): completely block radiotracer binding
